Measurements as given in PubChem BioAssay (NCI).
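Exposure lasted 48 hours, with cells grown in 96-well plates and compounds tested at five concentrations. TGI marks complete inhibition of growth.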

Experiments:
Experiment in all cases: NCI tumour cell line growth inhibition, 48 h
COLO 205 colon = tested on: COLO 205 colon
SK-MEL-28 melanoma = tested on: SK-MEL-28 melanoma
OVCAR-4 ovarian = tested on: OVCAR-4 ovarian
NCI/ADR-RES ovarian = tested on: NCI/ADR-RES ovarian
MDA-N = tested on: MDA-N
ACHN renal = tested on: ACHN renal
DU-145 prostate = tested on: DU-145 prostate
HS 578T breast = tested on: HS 578T breast
OVCAR-5 ovarian = tested on: OVCAR-5 ovarian
CAKI-1 renal = tested on: CAKI-1 renal
MALME-3M melanoma = tested on: MALME-3M melanoma
CCRF-CEM leukemia = tested on: CCRF-CEM leukemia
HCC-2998 colon = tested on: HCC-2998 colon
K-562 leukemia = tested on: K-562 leukemia
HT29 colon = tested on: HT29 colon
OVCAR-3 ovarian = tested on: OVCAR-3 ovarian
MCF7 breast = tested on: MCF7 breast
SF-268 CNS = tested on: SF-268 CNS
UO-31 renal = tested on: UO-31 renal
HCT-116 colon = tested on: HCT-116 colon
SNB-75 CNS = tested on: SNB-75 CNS
SF-539 CNS = tested on: SF-539 CNS
UACC-257 melanoma = tested on: UACC-257 melanoma
MDA-MB-231 breast = tested on: MDA-MB-231 breast
HOP-92 NSCLC = tested on: HOP-92 NSCLC
HL-60(TB) leukemia = tested on: HL-60(TB) leukemia
TK-10 renal = tested on: TK-10 renal
NCI-H226 lung = tested on: NCI-H226 lung
A498 renal = tested on: A498 renal
BT-549 breast = tested on: BT-549 breast
SK-MEL-2 melanoma = tested on: SK-MEL-2 melanoma
786-0 renal = tested on: 786-0 renal
NCI-H460 lung = tested on: NCI-H460 lung
EKVX NSCLC = tested on: EKVX NSCLC
IGROV1 ovarian = tested on: IGROV1 ovarian
SN12C renal = tested on: SN12C renal
SF-295 CNS = tested on: SF-295 CNS
NCI-H522 lung = tested on: NCI-H522 lung
HCT-15 colon = tested on: HCT-15 colon
KM12 colon = tested on: KM12 colon
PC-3 prostate = tested on: PC-3 prostate
NCI-H23 lung = tested on: NCI-H23 lung
T-47D breast = tested on: T-47D breast
MDA-MB-435 = tested on: MDA-MB-435
SK-MEL-5 melanoma = tested on: SK-MEL-5 melanoma
A549 NSCLC = tested on: A549 NSCLC
M14 melanoma = tested on: M14 melanoma
U251 CNS = tested on: U251 CNS
RXF 393 renal = tested on: RXF 393 renal
MOLT-4 leukemia = tested on: MOLT-4 leukemia
UACC-62 melanoma = tested on: UACC-62 melanoma
SNB-19 CNS = tested on: SNB-19 CNS
OVCAR-8 ovarian = tested on: OVCAR-8 ovarian
SK-OV-3 ovarian = tested on: SK-OV-3 ovarian
HOP-62 NSCLC = tested on: HOP-62 NSCLC
SR leukemia = tested on: SR leukemia
SW-620 colon = tested on: SW-620 colon
RPMI-8226 leukemia = tested on: RPMI-8226 leukemia
LOX IMVI melanoma = tested on: LOX IMVI melanoma

CCOC(=O)c1ccc(NC(=O)O/N=C(/Cl)CC)cc1
TGI (COLO 205 colon): 5.5 µM | TGI (SK-MEL-28 melanoma): 30.6 µM | TGI (OVCAR-4 ovarian): 10.1 µM | TGI (NCI/ADR-RES ovarian): 22 µM | TGI (MDA-N): 32.6 µM | TGI (ACHN renal): 22.9 µM | TGI (DU-145 prostate): 33.5 µM | TGI (HS 578T breast): 67.5 µM | TGI (OVCAR-5 ovarian): 34.3 µM | TGI (CAKI-1 renal): 8.72 µM | TGI (MALME-3M melanoma): 9.14 µM | TGI (CCRF-CEM leukemia): 4.54 µM | TGI (HCC-2998 colon): 32.6 µM | TGI (K-562 leukemia): 3.6 µM | TGI (HT29 colon): 44.5 µM | TGI (OVCAR-3 ovarian): 3.5 µM | TGI (MCF7 breast): 30.9 µM | TGI (SF-268 CNS): 48 µM | TGI (UO-31 renal): 31.4 µM | TGI (HCT-116 colon): 26.1 µM | TGI (SNB-75 CNS): 28.2 µM | TGI (SF-539 CNS): 33.6 µM | TGI (UACC-257 melanoma): 29.8 µM | TGI (MDA-MB-231 breast): 42.5 µM | TGI (HOP-92 NSCLC): 6.77 µM | TGI (HL-60(TB) leukemia): 6.47 µM | TGI (TK-10 renal): > 34.4 µM | TGI (NCI-H226 lung): 40 µM | TGI (A498 renal): 32.4 µM | TGI (BT-549 breast): 59.5 µM | TGI (SK-MEL-2 melanoma): 31.9 µM | TGI (786-0 renal): 13 µM | TGI (NCI-H460 lung): 40.9 µM | TGI (EKVX NSCLC): 32.2 µM | TGI (IGROV1 ovarian): 41.3 µM | TGI (SN12C renal): 39.3 µM | TGI (SF-295 CNS): 36.4 µM | TGI (NCI-H522 lung): 6.81 µM | TGI (HCT-15 colon): 28.9 µM | TGI (KM12 colon): 36.1 µM | TGI (PC-3 prostate): 33.3 µM | TGI (NCI-H23 lung): 39.9 µM | TGI (T-47D breast): 19.8 µM | TGI (MDA-MB-435): 34.6 µM | TGI (SK-MEL-5 melanoma): 29.5 µM | TGI (A549 NSCLC): > 60.8 µM | TGI (M14 melanoma): 25.6 µM | TGI (U251 CNS): 34.3 µM | TGI (RXF 393 renal): 31.1 µM | TGI (MOLT-4 leukemia): 4.51 µM | TGI (UACC-62 melanoma): 45.4 µM | TGI (SNB-19 CNS): 45.5 µM | TGI (OVCAR-8 ovarian): 30.4 µM | TGI (SK-OV-3 ovarian): 31.7 µM | TGI (HOP-62 NSCLC): 38.1 µM | TGI (SR leukemia): 11.6 µM | TGI (SW-620 colon): 3.36 µM

Nc1ccc(I)cn1
TGI (COLO 205 colon): > 100 µM | TGI (SK-MEL-28 melanoma): > 100 µM | TGI (OVCAR-4 ovarian): > 100 µM | TGI (NCI/ADR-RES ovarian): > 100 µM | TGI (MDA-N): > 100 µM | TGI (ACHN renal): > 100 µM | TGI (DU-145 prostate): > 100 µM | TGI (HS 578T breast): > 100 µM | TGI (OVCAR-5 ovarian): > 100 µM | TGI (CAKI-1 renal): > 100 µM | TGI (MALME-3M melanoma): > 100 µM | TGI (CCRF-CEM leukemia): > 100 µM | TGI (HCC-2998 colon): > 100 µM | TGI (K-562 leukemia): > 100 µM | TGI (HT29 colon): > 100 µM | TGI (OVCAR-3 ovarian): > 100 µM | TGI (MCF7 breast): > 100 µM | TGI (SF-268 CNS): > 100 µM | TGI (UO-31 renal): > 100 µM | TGI (HCT-116 colon): > 100 µM | TGI (SNB-75 CNS): > 100 µM | TGI (MDA-MB-231 breast): > 100 µM | TGI (HL-60(TB) leukemia): > 100 µM | TGI (NCI-H226 lung): > 100 µM | TGI (RPMI-8226 leukemia): > 100 µM | TGI (A498 renal): > 100 µM | TGI (BT-549 breast): > 100 µM | TGI (SK-MEL-2 melanoma): > 100 µM | TGI (786-0 renal): > 100 µM | TGI (NCI-H460 lung): > 100 µM | TGI (EKVX NSCLC): > 100 µM | TGI (IGROV1 ovarian): > 100 µM | TGI (SN12C renal): > 100 µM | TGI (SF-295 CNS): > 100 µM | TGI (NCI-H522 lung): > 100 µM | TGI (HCT-15 colon): > 100 µM | TGI (KM12 colon): > 100 µM | TGI (PC-3 prostate): > 100 µM | TGI (NCI-H23 lung): > 100 µM | TGI (LOX IMVI melanoma): > 100 µM | TGI (T-47D breast): > 100 µM | TGI (MDA-MB-435): > 100 µM | TGI (SK-MEL-5 melanoma): > 100 µM | TGI (A549 NSCLC): > 100 µM | TGI (M14 melanoma): > 100 µM | TGI (U251 CNS): > 100 µM | TGI (RXF 393 renal): > 100 µM | TGI (MOLT-4 leukemia): > 100 µM | TGI (UACC-62 melanoma): > 100 µM | TGI (SNB-19 CNS): > 100 µM | TGI (OVCAR-8 ovarian): > 100 µM | TGI (SK-OV-3 ovarian): > 100 µM | TGI (HOP-62 NSCLC): > 100 µM | TGI (SR leukemia): > 100 µM | TGI (SW-620 colon): > 100 µM
